In patent US20240150377A1, “MODULATORS OF CYSTIC FIBROSIS TRANSMEMBRANE CONDUCTANCE REGULATOR” (VERTEX PHARMACEUTICALS INCORPORATED, priority 2020, published 2024):
pEC50: −log10 of the molar value.

Molecular target: T1, CFTR (Homo sapiens, UniProt P13569, DEL508-508)
T1 construct: endogenous in cells; host or cells: primary human bronchial epithelial cells from CF subjects (F508del/MF-HBE), differentiated at air-liquid interface
Assay: HBE2 assay: Ussing chamber assay of CFTR-mediated short-circuit currents
Format: cell-based
Conditions: F508del/MF-HBE cells, with 44 nM potentiator, 18-24 hours, 20% human serum
Experimental: Ussing Chamber Assay of CFTR-Mediated Short-Circuit Currents
After four days the apical media was removed, and the cells were grown at an air liquid interface for >14 days prior to use.
To isolate the CFTR-mediated short-circuit (ISC) current, F508del/MF-HBE grown on Costar® Snapwell™ cell culture inserts were mounted in an Ussing chamber and the transepithelial ISC was measured under voltage-clamp recording conditions (Vhold=0 mV) at 37° C. […] The CFTR-mediated ISC (μA/cm^2) for each condition was determined from the peak forskolin response to the steady-state current following inhibition.
Identification of Corrector Compounds
The activity of the CFTR corrector compounds on the CFTR-mediated ISC was determined in Ussing chamber studies as described above.

T1 sequence (P13569 with tags, fused parts or gaps DEL508-508): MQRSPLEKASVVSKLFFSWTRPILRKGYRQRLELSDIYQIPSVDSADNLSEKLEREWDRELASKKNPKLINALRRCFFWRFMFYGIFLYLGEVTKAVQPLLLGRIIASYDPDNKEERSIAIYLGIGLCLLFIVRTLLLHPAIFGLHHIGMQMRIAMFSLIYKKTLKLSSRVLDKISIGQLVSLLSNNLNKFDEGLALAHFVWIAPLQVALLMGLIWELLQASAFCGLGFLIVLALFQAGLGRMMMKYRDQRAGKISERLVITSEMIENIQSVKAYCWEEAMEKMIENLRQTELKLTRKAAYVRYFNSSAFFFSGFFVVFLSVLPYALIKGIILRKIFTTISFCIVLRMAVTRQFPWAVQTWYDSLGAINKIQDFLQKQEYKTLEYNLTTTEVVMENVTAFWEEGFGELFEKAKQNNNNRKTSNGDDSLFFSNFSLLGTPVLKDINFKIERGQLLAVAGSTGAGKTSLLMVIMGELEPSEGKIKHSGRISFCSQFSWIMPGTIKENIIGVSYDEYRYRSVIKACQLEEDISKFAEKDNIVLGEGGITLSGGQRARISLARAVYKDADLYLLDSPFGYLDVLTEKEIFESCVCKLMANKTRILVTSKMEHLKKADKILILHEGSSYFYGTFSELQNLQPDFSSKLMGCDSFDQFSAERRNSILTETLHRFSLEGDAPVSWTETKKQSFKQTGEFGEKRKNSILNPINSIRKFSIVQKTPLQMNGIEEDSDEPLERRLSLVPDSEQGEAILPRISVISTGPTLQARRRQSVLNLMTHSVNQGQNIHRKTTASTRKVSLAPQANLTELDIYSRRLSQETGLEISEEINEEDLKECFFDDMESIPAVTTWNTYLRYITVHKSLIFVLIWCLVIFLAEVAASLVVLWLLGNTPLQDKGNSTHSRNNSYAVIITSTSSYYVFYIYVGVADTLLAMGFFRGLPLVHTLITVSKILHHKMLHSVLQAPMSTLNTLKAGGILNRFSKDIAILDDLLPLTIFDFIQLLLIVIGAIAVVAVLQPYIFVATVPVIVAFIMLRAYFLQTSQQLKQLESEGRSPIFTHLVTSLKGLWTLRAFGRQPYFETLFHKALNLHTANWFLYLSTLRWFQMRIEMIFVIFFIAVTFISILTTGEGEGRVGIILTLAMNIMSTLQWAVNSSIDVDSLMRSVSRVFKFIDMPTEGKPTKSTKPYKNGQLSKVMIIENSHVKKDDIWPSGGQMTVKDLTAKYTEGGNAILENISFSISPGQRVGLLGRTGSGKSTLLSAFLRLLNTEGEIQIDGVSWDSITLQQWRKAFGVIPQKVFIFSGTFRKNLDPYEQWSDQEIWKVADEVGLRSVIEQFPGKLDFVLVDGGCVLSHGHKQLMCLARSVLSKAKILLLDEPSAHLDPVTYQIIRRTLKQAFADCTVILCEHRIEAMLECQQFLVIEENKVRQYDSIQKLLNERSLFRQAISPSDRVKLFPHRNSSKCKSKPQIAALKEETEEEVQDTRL

Row | SMILES | HBE2 Activity at 3 μM (%) (3 μM) | HBE2 Activity at 3 μM (%) (3 μM corrector) | other results
1 | Cc1cccc(C)c1-c1cc2nc(n1)NS(=O)(=O)c1cccc(c1)C(=O)N(Cc1cncc(N(C)C3CCC3)n1)[C@@H]1CCN(CC(C)(C)C)CC1O2 (stereo in doubt) [Compound 1765] | – | ++ (++ is 30-60%) | –
2 | Cc1cccc(C)c1-c1cc2nc(n1)NS(=O)(=O)c1cccc(c1)C(=O)N(Cc1cncc(N3CCC4NC(=O)CC43)n1)[C@H](CC(C)(C)C)CO2 (stereo in doubt) [Compound 1622] | ++ (++ is 30-60%) | – | –
3 | Cc1cccc(C)c1-c1cc2nc(n1)NS(=O)(=O)c1cccc(c1)C(=O)N(Cc1ncc(OC(C)C)cn1)[C@H]([C@@H](C)C(C)C)CO2 (stereo in doubt) [Compound 1571] | + (+ is <300)) | – | –
4 | Cc1cccc(C)c1-c1cc2nc(n1)NS(=O)(=O)c1cccc(c1)C(=O)N(Cc1ncc(OC(C)C)cn1)[C@H]([C@@H](C)C(C)C)CO2 (stereo in doubt) [Compound 1570] | + (+ is <300)) | – | –
5 | Cc1cccc(C)c1-c1cc2nc(n1)NS(=O)(=O)c1cccc(c1)C(=O)N(Cc1cncc(N3CC[C@H]3C)n1)[C@H](CC1CC1)CO2 [Compound 1778] | – | +++ (+++ is >60+) | –
6 | Cc1cccc(C)c1-c1cc2nc(n1)NS(=O)(=O)c1cccc(c1)C(=O)N(Cc1cncc(N3C(=O)CC[C@H]3C)n1)[C@H](CC(C)(C)C)CO2 [Compound 1674] | +++ (+++ is >60+) | – | –
7 | Cc1cccc(C)c1-c1cc2nc(n1)NS(=O)(=O)c1cccc(c1)C(=O)N(Cc1cncc(N3CCC[C@H]3C)n1)[C@H](CC(C)(C)F)CO2 [Compound 1803] | – | +++ (+++ is >60+) | –
8 | COC[C@@H]1CCN1c1ccnc(CN2C(=O)c3cccc(c3)S(=O)(=O)Nc3nc(cc(-c4c(C)cccc4C)n3)OC[C@H]2CC(C)(C)C)n1 [Compound 1553] | +++ (+++ is >60+) | – | –
9 | Cc1cccc(C)c1-c1cc2nc(n1)NS(=O)(=O)c1cccc(c1)C(=O)N(Cc1cnc3cc(C(C)C)n(C)c3n1)[C@H](CC1CCC1)CO2 [Compound 1830] | – | +++ (+++ is >60+) | –
10 | Cc1cccc(C)c1-c1cc2nc(n1)NS(=O)(=O)c1cccc(c1)C(=O)N(Cc1cc(C(C)C)n(C)n1)[C@H](CC(C)(C)C)CO2 [Compound 1413] | ++ (++ is 30-60%) | – | –
11 | Cc1cccc(C)c1-c1cc2nc(n1)NS(=O)(=O)c1cccc(c1)C(=O)N(Cc1cncc(N(C)C3CCC3)n1)[C@@H]1CN(C3CC4(CC4)C3)C[C@H]1O2 [Compound 1742] | – | +++ (+++ is >60+) | –

Further lines, with some results ahead:

Row | HBE2 Activity at 3 μM (%) (3 μM) | HBE2 Activity at 3 μM (%) (3 μM corrector) | SMILES | other results
12 | +++ (+++ is >60+) | – | Cc1cccc(C)c1-c1cc2nc(n1)NS(=O)(=O)c1cccc(c1)C(=O)N(Cc1cncc(N(C)CCN(C)C(=O)OC(C)C)n1)[C@H](CC(C)(C)C)CO2 [Compound 1662] | –
13 | +++ (+++ is >60+) | – | CCN(CC)c1cncc(CN2C(=O)c3cccc(c3)S(=O)(=O)Nc3nc(cc(-c4c(C)cccc4C)n3)OC[C@H]2CC(C)(C)C)n1 [Compound 1697] | –
14 | +++ (+++ is >60+) | – | CNC(=O)OCCN(C)c1cncc(CN2C(=O)c3cccc(c3)S(=O)(=O)Nc3nc(cc(-c4c(C)cccc4C)n3)OC[C@H]2CC(C)(C)C)n1 [Compound 1666] | –
15 | – | +++ (+++ is >60+) | Cc1cccc(C)c1-c1cc2nc(n1)NS(=O)(=O)c1cccc(c1)C(=O)N(Cc1cncc(N(C)C3CC4(CC4)C3)n1)[C@H](COC1CC1)CO2 [Compound 1904] | –
16 | +++ (+++ is >60+) | – | Cc1cccc(C)c1-c1cc2nc(n1)NS(=O)(=O)c1cccc(c1)C(=O)N(Cc1cncc(N(C)CCN(C)C(=O)OC(C)(C)C)n1)[C@H](CC(C)(C)C)CO2 [Compound 1648] | –
17 | +++ (+++ is >60+) | – | Cc1cccc(C)c1-c1cc2nc(n1)NS(=O)(=O)c1cccc(c1)C(=O)N(Cc1cncc(N(C)CC(C)C)n1)[C@H](CC1(C)CC1)CO2 [Compound 1711] | pEC50: > 6.00; Emax (read-out: HBE2 Max activity (%)): > 60%
18 | – | +++ (+++ is >60+) | Cc1cccc(C)c1-c1cc2nc(n1)NS(=O)(=O)c1cccc(c1)C(=O)N(Cc1cncc(N(C)CC(C)C)n1)[C@H](CCC(C)C)CO2 [Compound 1763] | –
